# Patent publication US5773449A, “Thioquinolone compounds which have useful pharmaceutical activity” (Zenyaku Kogyo Kabushiki Kaisha, priority 1994, dated 1998)
# Assays:
# [1] = system: Helicobacter pylori standard strain ATCC 43526 (NCTC 11916); experiment: Antibacterial test 1: agar plate dilution method (anaerobic MIC method) against Hp; type: cell-based; conditions: 72 h; Helicobacter pylori ATCC 43526 (NCTC 11916); brucella agar + 7% horse blood, microaerobic, 37° C., 3 days
# Method: Antibacterial test against Hp was performed in substantial accordance with agar plate dilution method (anaerobic MIC method) based on Standard method of The Japan Society of Chemotherapy to determine minimum inhibitory concentration (MIC) of the respective test compounds. The respective test compounds were sequentially dissolved in dimethyl sulfoxide (DMSO) and serially diluted twofold. […] Strain used for inoculation was Helicobacter pylori standard strain ATCC 43526 (NCTC 11916). For pre-culturing of bacteria to be inoculated, the above-mentioned strain freezingly conserved at -135° C. was thawed in a warm bath (40° C.), applied on a brucella agar medium containing 7% horse blood free from fibrin, and microaerobically cultured in a jar for anaerobic bacteria at 37° C. for 3 days. The solution of bacteria to be inoculated was prepared by collecting colonies grown on the culture medium and suspending the same in the brucella broth.
# K.pneumoniae PCI 602 = experiment: Antibacterial Test 2: agar plate dilution method (aerobic MIC method), K.pneumoniae; type: cell-based; conditions: Klebsiella pneumoniae, PCI602, sensitive-disk agar medium-N
# Method: (§1) Then, tested were antibacterial activities of the typical compounds of the present invention against gram-positive and-negative bacteria other than Hp. MICs of the typical compounds of the present invention were determined in substantial accordance with agar plate dilution method (aerobic MIC method) based on Standard method of The Japan Society of Chemotherapy.
# (§2) The respective test compound were dissolved in dimethyl sulfoxide (DMSO) and serially diluted twofold. These diluted solutions of the compounds were respectively added to sensitive-disk agar medium-N (manufactured by NISSUI SEIYAKU) to prepare agar plates for determination with concentration of 0.05-100 μg/ml.
# (§3) The below-mentioned strains freezingly conserved at -135° C. were thawed in a warm bath (40° C.), cultured in a sensitivity-determining bouillon at 37° C. for 18-20 hours, and then diluted with the above-mentioned medium to prepare about 1.0×10^6CFU/ml of bacterial solution.
# (§4) Inoculation was made by 5 μl by multi-inoculator (manufactured by SAKUMA SEISAKUSHO). Culturing was made under the same conditions as those of the pre-culturing and the MIC (unit: μg/ml) was determined by observing whether the bacteria grew or not.
# S.aureus FDA 209P = experiment: Antibacterial Test 2: agar plate dilution method (aerobic MIC method), S.aureus; type: cell-based; conditions: Staphylococcus aureus, FDA209P, sensitive-disk agar medium-N
# Method: as §1, §2, §3, §4
# P.aeruginosa IFO 3445 = experiment: Antibacterial Test 2: agar plate dilution method (aerobic MIC method), P.aeruginosa; type: cell-based; conditions: Pseudomonas aeruginosa, IFO3445, sensitive-disk agar medium-N
# Method: as §1, §2, §3, §4
# E.faecalis RIMD 3336001 = experiment: Antibacterial Test 2: agar plate dilution method (aerobic MIC method), E.faecalis; type: cell-based; conditions: Enterococcus faecalis, RIMD3336001, sensitive-disk agar medium-N
# Method: as §1, §2, §3, §4
# M.luteus ATCC 9341 = experiment: Antibacterial Test 2: agar plate dilution method (aerobic MIC method), M.luteus; type: cell-based; conditions: Micrococcus luteus, ATCC9341, sensitive-disk agar medium-N
# Method: as §1, §2, §3, §4
# B.subtilis PCI 219 = experiment: Antibacterial Test 2: agar plate dilution method (aerobic MIC method), B.subtilis; type: cell-based; conditions: Bacillus subtilis, PCI219, sensitive-disk agar medium-N
# Method: as §1, §2, §3, §4
# E.coli NIHJ JC-2 = experiment: Antibacterial Test 2: agar plate dilution method (aerobic MIC method), E.coli; type: cell-based; conditions: Escherichia coli, NIHJJC2, sensitive-disk agar medium-N
# Method: as §1, §2, §3, §4
# peptic ulcer = conditions: H2-blocker / proton-pump inhibitor; cited from earlier work
Compound,MIC [1] [µg/mL],MIC (K.pneumoniae PCI 602) [µg/mL],MIC (S.aureus FDA 209P) [µg/mL],MIC (P.aeruginosa IFO 3445) [µg/mL],MIC (E.faecalis RIMD 3336001) [µg/mL],MIC (M.luteus ATCC 9341) [µg/mL],MIC (B.subtilis PCI 219) [µg/mL],MIC (E.coli NIHJ JC-2) [µg/mL],cure rate (peptic ulcer)
"COCc1ccc2c(=S)cc[nH]c2c1 [compound 16, 7-Methoxymethylquinoline-4(1H)-thione]",1.56,> 100,50,> 100,50,100,100,> 100,–
"S=c1cc[nH]c2cc(N3CCNCC3)ccc12 [compound 54, 7-(1-Piperazinyl)quinoline-4(1H)-thione]",3.13,> 100,100,> 100,> 100,> 100,> 100,> 100,–
"CCCCCCCCOc1ccc2c(=S)cc[nH]c2c1 [compound 53, 7-Octyloxyquinoline-4(1H)-thione]",3.13,> 100,> 100,> 100,> 100,> 100,> 100,> 100,–
"CCCOc1ccc2c(=S)cc[nH]c2c1 [compound 26, 7-n-Propoxyquinoline-4(1H)-thione]",1.56,> 100,100,> 100,> 100,> 100,> 100,> 100,–
"Cc1ccc2c(=S)cc[nH]c2c1C [compound 55, 7,8-Dimethylquinoline-4(1H)-thione]",0.39,> 100,> 100,> 100,> 100,> 100,> 100,> 100,–
"S=c1cc[nH]c2cc(CCc3ccccc3)ccc12 [compound 31, 7-Phenethylquinoline-4(1H)-thione]",0.39,> 100,> 100,> 100,> 100,> 100,> 100,> 100,–
"CC1(C)S[C@@H]2[C@H](NC(=O)[C@H](N)c3ccc(O)cc3)C(=O)N2[C@H]1C(=O)O [amoxicillin, reference compound]",0.05,50,0.1,> 100,0.2,≤ 0.05,0.2,3.13,–
"CS(=O)(=O)Oc1ccc2c(=S)cc[nH]c2c1 [compound 28, 7-Methanesulfonyloxyquinoline-4(1H)-thione]",0.39,> 100,25,> 100,50,50,> 100,> 100,–
"S=c1cc[nH]c2cc(/C=C/c3ccccc3)ccc12 [compound 32, trans-7-Styrylquinoline-4(1H)-thione]",0.78,> 100,> 100,> 100,> 100,> 100,> 100,> 100,–
"S=c1cc[nH]c2cc(COc3ccccc3)ccc12 [compound 6, 7-Phenoxymethylquinoline-4(1H)-thione]",1.56,> 100,> 100,> 100,> 100,> 100,> 100,> 100,–
"Cc1c(OCC(F)(F)F)ccnc1C[S+]([O-])c1nc2ccccc2[nH]1 (centres unmarked) [lansoprazole, reference compound]",12.5,> 100,> 100,> 100,> 100,> 100,> 100,> 100,–
"S=c1cc[nH]c2cc(-c3ccccc3)ccc12 [compound 3, 7-Phenylquinoline-4(1H)-thione]",1.56,> 100,> 100,> 100,> 100,> 100,> 100,> 100,–
CN/C(=N/CCSCc1nc[nH]c1C)NC#N [cimetidine],–,–,–,–,–,–,–,–,80-90%
"S=c1cc[nH]c2cc(Oc3ccccc3)ccc12 [compound 38, 7-Phenoxyquinoline-4(1H)-thione]",0.78,> 100,> 100,> 100,> 100,> 100,> 100,> 100,–
"O=C(O)CCCCCOc1ccc2c(=S)cc[nH]c2c1 [compound 51, 7-(5-Carboxy-n-pentyloxy)quinoline-4(1H)-thione]",1.56,> 100,100,> 100,100,> 100,> 100,> 100,–
COc1ccc2[nH]c([S+]([O-])Cc3ncc(C)c(OC)c3C)nc2c1 (centres unmarked) [omeprazole],–,–,–,–,–,–,–,–,80-90%
"CC(C)N(C)c1ccc2c(=S)cc[nH]c2c1 [compound 34, 7-(N-Isopropyl-N-methylamino)quinoline-4(1H)-thione]",0.78,> 100,> 100,> 100,> 100,> 100,> 100,> 100,–
"CSc1ccc2c(=S)cc[nH]c2c1 [compound 17, 7-Methylthioquinoline-4(1H)-thione]",0.39,> 100,> 100,> 100,> 100,> 100,> 100,> 100,–
"S=c1cc[nH]c2cc(CSc3nc4ccccc4[nH]3)ccc12 [compound 50, 7-(2-Benzimidazolyl)thiomethylquinoline-4(1H)-thione]",1.56,> 100,> 100,> 100,> 100,> 100,> 100,> 100,–
"CCCCCCOc1ccc2c(=S)cc[nH]c2c1 [compound 24, 7-n-Hexyloxyquinoline-4(1H)-thione]",1.56,> 100,> 100,> 100,> 100,> 100,> 100,> 100,–
